Results as given in patent publication US11959088B2, “Modifying protein production in plants” (MEDICAGO INC., priority 2014, dated 2024).

Legend:
[1] = tested on: Nicotiana benthamiana plants; test: BAP treatment after seedling transplantation: primary and secondary leaf biomass; assay type: in vivo
[2] = tested on: Nicotiana benthamiana plants; test: BAP treatment after seedling transplantation: HA production (hemagglutination assay) after agroinfiltration with construct 484; assay type: in vivo; settings: 500 ppm after 7 and 12 days
[3] = 500 ppm 7 days after transplantation

c1ccc(CNc2ncnc3nc[nH]c23)cc1 [BAP, 6-benzylaminopurine]
effect on primary biomass ([1]; 100, 500 or 1,000 ppm, 7 and/or 12 days after transplantation (FIG. 9)): little effect | effect on secondary biomass production ([1]; 100 or 500 ppm, 7 and/or 12 days after transplantation (FIG. 9)): significant positive effect | increase for primary biomass compared to control [1, 3]: less than 10% | relative increase of secondary leaf biomass compared to control (non-treated) plants [1, 3]: about 37.5% | effect on secondary biomass production ([1]; 1,000 ppm treatment (FIG. 9)): no positive impact | secondary leaf biomass harvested ([1]; plants treated with 500 ppm 7 days after transplantation, control ca. 16 g): ca. 22 g | increase of total HA yield per plant ([2]; versus control (non-treated) plants): 45-50% | yield of HA per g fresh weight ([2]; control less than 200,000 units (FIG. 10)): more than 300,000 units per g fresh weight
